One block for each compound: values may come before it.
Columns and labels:
Adenosine receptor A1 [1] = target: T1, Adenosine receptor A1 (Homo sapiens, UniProt P30542); experiment: Displacement of [3H]DPCPX from recombinant human A1 receptor expressed in CHO cell membranes
T1 sequence (P30542 whole entry): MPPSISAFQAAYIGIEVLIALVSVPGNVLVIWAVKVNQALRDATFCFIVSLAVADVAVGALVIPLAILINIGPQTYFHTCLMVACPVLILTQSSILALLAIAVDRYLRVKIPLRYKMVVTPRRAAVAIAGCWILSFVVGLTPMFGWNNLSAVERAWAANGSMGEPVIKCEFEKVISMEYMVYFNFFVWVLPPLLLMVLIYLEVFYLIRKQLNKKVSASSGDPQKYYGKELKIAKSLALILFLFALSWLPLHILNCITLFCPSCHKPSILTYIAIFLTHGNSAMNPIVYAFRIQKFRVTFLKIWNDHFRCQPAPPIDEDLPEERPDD

Adenosine receptor A2a [2] = target: T2, Adenosine receptor A2a (Homo sapiens, UniProt P29274); experiment: Displacement of [3H]ZM241385 from human A2A receptor expressed in HEK293 cell membranes
Adenosine receptor A3 = target: T3, Adenosine receptor A3 (Homo sapiens, UniProt P0DMS8); experiment: Displacement of [125I]I-AB-MECA from recombinant human adenosine A3 receptor expressed in CHO cell membranes
T3 sequence (P0DMS8 whole entry): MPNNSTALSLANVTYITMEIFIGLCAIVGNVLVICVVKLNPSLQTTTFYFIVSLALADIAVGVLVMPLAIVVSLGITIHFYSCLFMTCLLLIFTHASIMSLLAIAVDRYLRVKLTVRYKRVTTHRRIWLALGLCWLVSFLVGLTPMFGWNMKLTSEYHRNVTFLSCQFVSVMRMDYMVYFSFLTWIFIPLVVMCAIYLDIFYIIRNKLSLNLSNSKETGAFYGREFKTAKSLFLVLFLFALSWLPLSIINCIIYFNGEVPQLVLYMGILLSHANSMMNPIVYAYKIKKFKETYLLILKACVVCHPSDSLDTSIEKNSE

[3] = target: 5-hydroxytryptamine receptor 2B (Homo sapiens, UniProt P41595); experiment: Displacement of [3H]-LSD from human 5-HT2B receptor expressed in HEK cell by radioligand binding assay
[4] = target: 5-hydroxytryptamine receptor 2C (Homo sapiens, UniProt P28335); experiment: Displacement of [3H]-Mesulergine from human 5-HT2C receptor expressed in Flp-In-HEK cell by radioligand binding assay
[5] = target: T4, Adenosine receptor A1 (Homo sapiens) (UniProt P30542); experiment: Displacement of [3H]DPCPX from recombinant human A1 receptor expressed in CHO cell membranes at 10 uM
T4 sequence (whole entry): T1 sequence (P30542 whole entry)

Adenosine receptor A2a [6] = target: T2, Adenosine receptor A2a; experiment: Displacement of [3H]ZM241385 from human A2A receptor expressed in HEK293 cell membranes at 10 uM; settings: for inhibition at 10 µM: HEK293 cell membranes expressing human A2A receptor, probe [3H]ZM241385; for inhibition (INH): hek293, 10 µM
[7] = target: Adenosine receptor A3 (Homo sapiens) (UniProt P0DMS8); experiment: Displacement of [125I]I-AB-MECA from recombinant human adenosine A3 receptor expressed in CHO cell membranes at 10 uM
[8] = target: Alpha-2C adrenergic receptor (Homo sapiens, UniProt P18825); experiment: Displacement of [3H]Rauwolscine from human alpha 2C adrenergic receptor expressed in MDCK cells by radioligand binding assay; format: cell-based
Adenosine receptor A1 [9] = target: T5, Adenosine receptor A1 (Rattus norvegicus, UniProt P25099); experiment: Displacement of [3H]DPCPX from rat A1 receptor
T5 sequence (P25099 whole entry): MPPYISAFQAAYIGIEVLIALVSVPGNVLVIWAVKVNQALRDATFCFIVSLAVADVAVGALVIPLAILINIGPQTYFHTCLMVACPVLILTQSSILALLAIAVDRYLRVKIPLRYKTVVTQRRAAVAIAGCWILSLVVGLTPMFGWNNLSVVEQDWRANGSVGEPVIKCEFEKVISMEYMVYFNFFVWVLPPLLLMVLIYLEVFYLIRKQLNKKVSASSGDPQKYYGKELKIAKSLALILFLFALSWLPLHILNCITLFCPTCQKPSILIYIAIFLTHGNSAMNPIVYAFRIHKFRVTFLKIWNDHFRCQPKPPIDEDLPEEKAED

Histamine H2 receptor = Histamine H2 receptor (Homo sapiens, UniProt P25021); experiment: Displacement of [3H]Cimetidine from human H2 receptor expressed in HEK cells after 90 mins by scintillation counting method; format: cell-based
Translocator protein = Translocator protein (Homo sapiens, UniProt P30536); experiment: Displacement of [3H]PK11195 from human TSPO after 90 mins by scintillation counting method
[10] = target: T6, Adenosine receptor A3 (Mus musculus) (UniProt Q61618); experiment: Displacement of [125I]I-AB-MECA from recombinant mouse adenosine A3 receptor expressed in HEK293 cell membranes at 10 uM
T6 sequence (whole entry): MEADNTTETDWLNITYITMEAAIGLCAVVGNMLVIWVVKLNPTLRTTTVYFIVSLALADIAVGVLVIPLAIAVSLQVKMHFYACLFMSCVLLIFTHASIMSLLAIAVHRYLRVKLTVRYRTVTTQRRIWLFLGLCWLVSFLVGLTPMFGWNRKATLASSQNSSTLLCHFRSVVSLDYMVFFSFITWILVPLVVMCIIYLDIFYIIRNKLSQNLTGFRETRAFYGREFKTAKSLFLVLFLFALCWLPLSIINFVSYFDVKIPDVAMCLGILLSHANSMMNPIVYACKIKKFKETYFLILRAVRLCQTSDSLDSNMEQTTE

[11] = target: Muscarinic acetylcholine receptor M4 (Homo sapiens, UniProt P08173); experiment: Displacement of [3H]NMS from human M4 AChR expressed in CHO cell membranes after 90 mins by scintillation counting method
Adenosine receptor A2b = target: T7, Adenosine receptor A2b (Homo sapiens, UniProt P29275); experiment: Displacement of [3H]-MRS-1754 from human A2B receptor expressed in HEK293 cell membranes at 10 uM; settings: HEK293 cell membranes expressing human A2B receptor, probe [3H]-MRS-1754
T7 sequence (P29275 whole entry): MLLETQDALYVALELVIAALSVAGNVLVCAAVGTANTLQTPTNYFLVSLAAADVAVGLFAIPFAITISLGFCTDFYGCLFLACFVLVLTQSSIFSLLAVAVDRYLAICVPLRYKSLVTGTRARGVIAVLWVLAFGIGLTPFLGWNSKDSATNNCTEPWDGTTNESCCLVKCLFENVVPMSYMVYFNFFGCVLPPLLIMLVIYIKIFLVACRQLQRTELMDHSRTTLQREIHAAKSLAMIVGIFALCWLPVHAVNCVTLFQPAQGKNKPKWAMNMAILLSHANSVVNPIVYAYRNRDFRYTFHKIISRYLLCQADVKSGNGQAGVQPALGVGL

[12] = target: T8, Sigma intracellular receptor 2 (Rattus norvegicus, UniProt Q5U3Y7); experiment: Displacement of [3H]-DTG from sigma 2 receptor in rat PC12 cells by radioligand binding assay; format: cell-based
T8 sequence (Q5U3Y7 whole entry): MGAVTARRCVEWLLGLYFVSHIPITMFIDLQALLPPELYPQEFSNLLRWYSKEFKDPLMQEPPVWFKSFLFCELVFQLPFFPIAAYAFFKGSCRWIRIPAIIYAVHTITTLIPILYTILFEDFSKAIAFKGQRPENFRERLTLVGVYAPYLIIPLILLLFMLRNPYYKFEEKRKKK

[13] = target: Sigma non-opioid intracellular receptor 1 (Cavia porcellus, UniProt Q60492); experiment: Displacement of [3H]-(+)-pentazocine from sigma-1 receptor in guinea pig by radioligand binding assay
[14] = target: Adenosine receptors; A1 & A3 (Homo sapiens) (UniProt P30542+P0DMS8); experiment: Selectivity ratio of Ki for displacement of [3H]DPCPX from recombinant human A1 receptor expressed in CHO cell membranes to Ki for displacement of [125I]I-AB-MECA from recombinant human adenosine A3 receptor

T2 sequence (P29274 whole entry): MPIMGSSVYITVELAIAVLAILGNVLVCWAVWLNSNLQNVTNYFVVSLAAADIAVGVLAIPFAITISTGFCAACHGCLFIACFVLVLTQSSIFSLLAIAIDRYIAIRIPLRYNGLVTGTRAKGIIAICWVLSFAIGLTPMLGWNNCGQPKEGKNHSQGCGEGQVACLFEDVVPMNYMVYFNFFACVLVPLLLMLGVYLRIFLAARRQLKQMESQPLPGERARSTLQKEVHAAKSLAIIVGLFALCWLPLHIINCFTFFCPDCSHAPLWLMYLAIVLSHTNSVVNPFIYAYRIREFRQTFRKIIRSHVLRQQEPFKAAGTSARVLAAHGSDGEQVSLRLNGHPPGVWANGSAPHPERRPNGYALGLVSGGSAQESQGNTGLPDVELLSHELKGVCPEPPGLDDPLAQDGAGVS
5-hydroxytryptamine receptor 2B, sequence (P41595 whole entry): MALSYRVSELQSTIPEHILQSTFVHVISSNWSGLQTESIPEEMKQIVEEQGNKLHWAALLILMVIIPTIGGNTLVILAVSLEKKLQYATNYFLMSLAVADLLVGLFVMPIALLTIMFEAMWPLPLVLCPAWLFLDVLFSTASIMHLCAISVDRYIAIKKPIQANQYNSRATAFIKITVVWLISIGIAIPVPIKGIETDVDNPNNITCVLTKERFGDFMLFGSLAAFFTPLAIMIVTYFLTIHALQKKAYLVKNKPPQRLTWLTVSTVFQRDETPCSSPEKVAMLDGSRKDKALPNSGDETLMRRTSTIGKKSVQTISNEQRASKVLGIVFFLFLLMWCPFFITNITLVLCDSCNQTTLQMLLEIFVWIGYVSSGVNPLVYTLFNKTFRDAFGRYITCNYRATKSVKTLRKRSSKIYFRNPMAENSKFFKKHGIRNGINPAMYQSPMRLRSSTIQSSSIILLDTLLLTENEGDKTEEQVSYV
Translocator protein, sequence (P30536 whole entry): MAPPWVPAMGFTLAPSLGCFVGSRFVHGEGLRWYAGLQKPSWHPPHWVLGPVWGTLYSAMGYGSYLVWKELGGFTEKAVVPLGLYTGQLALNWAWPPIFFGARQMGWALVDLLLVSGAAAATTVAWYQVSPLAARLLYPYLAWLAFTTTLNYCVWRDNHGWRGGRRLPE
5-hydroxytryptamine receptor 2C, sequence (P28335 whole entry): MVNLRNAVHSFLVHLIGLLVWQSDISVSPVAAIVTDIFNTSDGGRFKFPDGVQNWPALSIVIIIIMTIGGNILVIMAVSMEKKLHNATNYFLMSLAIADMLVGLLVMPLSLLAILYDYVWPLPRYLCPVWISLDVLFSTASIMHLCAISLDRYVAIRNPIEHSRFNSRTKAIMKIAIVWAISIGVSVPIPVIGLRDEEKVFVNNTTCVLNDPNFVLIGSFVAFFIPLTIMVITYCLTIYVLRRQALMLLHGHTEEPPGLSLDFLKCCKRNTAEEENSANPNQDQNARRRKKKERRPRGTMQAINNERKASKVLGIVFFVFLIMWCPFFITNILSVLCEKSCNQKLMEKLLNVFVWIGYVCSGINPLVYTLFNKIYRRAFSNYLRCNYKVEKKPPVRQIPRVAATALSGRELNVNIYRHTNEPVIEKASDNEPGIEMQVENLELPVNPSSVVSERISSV
Muscarinic acetylcholine receptor M4, sequence (P08173 whole entry): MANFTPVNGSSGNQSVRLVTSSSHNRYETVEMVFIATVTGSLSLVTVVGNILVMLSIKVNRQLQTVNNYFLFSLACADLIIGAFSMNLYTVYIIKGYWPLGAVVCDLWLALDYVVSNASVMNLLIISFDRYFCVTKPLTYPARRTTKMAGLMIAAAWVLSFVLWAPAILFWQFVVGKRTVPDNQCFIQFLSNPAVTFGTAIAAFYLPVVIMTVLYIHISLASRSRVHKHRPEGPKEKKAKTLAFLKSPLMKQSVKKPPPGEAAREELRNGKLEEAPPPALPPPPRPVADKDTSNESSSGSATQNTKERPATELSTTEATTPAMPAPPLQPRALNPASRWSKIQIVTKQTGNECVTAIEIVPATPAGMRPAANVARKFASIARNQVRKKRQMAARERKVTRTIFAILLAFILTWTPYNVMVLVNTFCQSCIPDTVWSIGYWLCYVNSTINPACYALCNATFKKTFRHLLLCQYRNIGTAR
Histamine H2 receptor, sequence (P25021 whole entry): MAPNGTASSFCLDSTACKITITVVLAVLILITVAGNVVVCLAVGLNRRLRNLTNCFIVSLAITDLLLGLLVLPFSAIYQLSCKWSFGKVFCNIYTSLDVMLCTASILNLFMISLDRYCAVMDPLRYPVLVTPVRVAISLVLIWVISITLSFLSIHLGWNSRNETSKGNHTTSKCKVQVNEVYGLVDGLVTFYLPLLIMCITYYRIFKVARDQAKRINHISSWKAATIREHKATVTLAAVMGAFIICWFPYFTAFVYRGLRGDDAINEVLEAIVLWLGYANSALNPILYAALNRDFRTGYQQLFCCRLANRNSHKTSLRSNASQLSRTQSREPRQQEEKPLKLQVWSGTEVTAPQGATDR
Sigma non-opioid intracellular receptor 1, sequence (Q60492 whole entry): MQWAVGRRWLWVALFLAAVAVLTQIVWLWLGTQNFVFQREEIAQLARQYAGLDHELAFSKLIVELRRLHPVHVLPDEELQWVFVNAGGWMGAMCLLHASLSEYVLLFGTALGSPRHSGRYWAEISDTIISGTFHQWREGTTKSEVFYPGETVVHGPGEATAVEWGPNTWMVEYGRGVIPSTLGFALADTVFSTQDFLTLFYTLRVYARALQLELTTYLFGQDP
Alpha-2C adrenergic receptor, sequence (P18825 whole entry): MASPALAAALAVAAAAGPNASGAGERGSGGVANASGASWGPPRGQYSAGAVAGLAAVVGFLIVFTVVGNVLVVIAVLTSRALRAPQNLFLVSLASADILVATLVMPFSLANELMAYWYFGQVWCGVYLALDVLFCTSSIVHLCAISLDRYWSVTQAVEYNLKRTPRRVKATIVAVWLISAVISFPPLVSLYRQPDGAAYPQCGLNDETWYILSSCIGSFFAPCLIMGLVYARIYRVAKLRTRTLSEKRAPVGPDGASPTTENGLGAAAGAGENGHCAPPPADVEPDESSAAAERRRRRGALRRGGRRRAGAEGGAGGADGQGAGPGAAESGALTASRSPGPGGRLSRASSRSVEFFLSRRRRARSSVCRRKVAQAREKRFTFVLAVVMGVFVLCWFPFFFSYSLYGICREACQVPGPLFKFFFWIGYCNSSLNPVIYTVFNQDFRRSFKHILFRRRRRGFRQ

Ki (Adenosine receptor A1 [1]): 1.49 µM
Ki (Adenosine receptor A2a [2]): 7.07 µM
Ki (Adenosine receptor A3): 0.0117 µM
Ki [3]: 1.86 µM
Ki [4]: 1.1 µM
SMILES: O[C@H]1CCC[C@@H]1Nc1nc(C#Cc2ccc(Cl)s2)nc2[nH]cnc12

inhibition [5]: 28%
inhibition at 10 µM (Adenosine receptor A2a [6]): 5%
inhibition [7]: 20%
Ki [8]: 3.52 µM
Ki [3]: 1.21 µM
SMILES: Oc1ccc(CCNc2nc(C#Cc3ccc(Cl)s3)nc3[nH]cnc23)cc1O

Ki (Adenosine receptor A1 [1]): 0.00038 µM
Ki (Adenosine receptor A1 [9]): 0.00034 µM
Ki (Adenosine receptor A2a [2]): > 10 µM
Ki (Adenosine receptor A3): 0.915 µM
SMILES: OC[C@H]1O[C@@H](n2cnc3c(N[C@H]4C[C@H]5CC[C@@H]4C5)ncnc32)[C@H](O)[C@@H]1O

Ki (Adenosine receptor A1 [1]): 1.05 µM
inhibition at 10 µM (Adenosine receptor A2a [6]): 37%
Ki (Adenosine receptor A3): 0.0206 µM
Ki (Histamine H2 receptor): 3.64 µM
SMILES: Clc1ccc(C#Cc2nc(N[C@H]3C[C@H]4CC[C@@H]3C4)c3nc[nH]c3n2)s1

inhibition (INH) (Adenosine receptor A2a [6]): 34%
SMILES: CCCNc1nc(C#Cc2ccc(Cl)s2)nc2c1ncn2[C@H]1[C@H](O)[C@H](O)[C@]2(C(=O)NC)C[C@H]12

inhibition [5]: < 10%
inhibition (INH) (Adenosine receptor A2a [6]): 24%
SMILES: CNC(=O)[C@@]12C[C@@H]1[C@@H](n1cnc3c(NC)nc(C#Cc4ccc(Cl)s4)nc31)[C@H](O)[C@@H]2O

inhibition (INH) (Adenosine receptor A2a [6]): 11%
SMILES: CCNc1nc(Cl)nc2c1ncn2[C@H]1[C@H](O)[C@H](O)[C@@H]2C[C@@H]21

Ki (Adenosine receptor A1 [1]): 1.2 µM
inhibition at 10 µM (Adenosine receptor A2a [6]): 6%
Ki (Adenosine receptor A3): 0.0371 µM
Ki (Translocator protein): 2.02 µM
SMILES: Clc1ccc(C#Cc2nc(NC(C3CC3)C3CC3)c3nc[nH]c3n2)s1

Ki (Adenosine receptor A1 [1]): 0.687 µM
Ki (Adenosine receptor A2a [2]): 2.37 µM
Ki (Adenosine receptor A3): 0.032 µM
inhibition [10]: 20%
Ki [11]: 1.74 µM
SMILES: Clc1ccc(C#Cc2nc(N[C@@H]3CCOC3)c3nc[nH]c3n2)s1

inhibition [5]: 31%
inhibition at 10 µM (Adenosine receptor A2a [6]): 25%
Ki (Adenosine receptor A3): 0.0164 µM
inhibition [10]: 27%
inhibition at 10 µM (Adenosine receptor A2b): 10.4%
Ki [12]: 1.91 µM
Ki [13]: 1.52 µM
Ratio Ki [14]: 1000
SMILES: CCCNc1nc(C#Cc2ccc(Cl)s2)nc2[nH]cnc12

inhibition [5]: 54%
inhibition at 10 µM (Adenosine receptor A2a [6]): 21%
inhibition [7]: 26%
SMILES: O=S(=O)(O)c1ccc(C#Cc2nc(NC(C3CC3)C3CC3)c3nc[nH]c3n2)cc1

Ki (Adenosine receptor A1 [1]): 4.85 µM
inhibition at 10 µM (Adenosine receptor A2a [6]): 32%
Ki (Adenosine receptor A3): 0.116 µM
inhibition [10]: 16%
Ki (Translocator protein): 3.17 µM
SMILES: Cn1cnc2c(NCCc3ccccc3)nc(C#Cc3ccc(Cl)s3)nc21

Reference: ChEMBL document CHEMBL4368860, “Structure activity relationship of 2-arylalkynyl-adenine derivatives as human A3 adenosine receptor antagonists” (Medchemcomm, 2018)
